The numbers were not newly measured in patent US10905116B2, “Antimicrobial fabric assemblies” (Higher Dimension Materials, Inc., priority 2016, dated 2021), which cites them from elsewhere.

For one series, the system named is E. coli. The following applies: against E. coli.

For `[Ag+]` [silver ion], the “silver ion concentration enough to cause antimicrobial activity” value in the series with bacterium (released from silver nanoparticles confined in nanoscale cages, conditions of normal water, estimated) is 50 parts per billion. Also, the “number of silver ions to kill a single bacterium” value in the series on bacterium (reported) is listed as “about 100”.

Turning to `[Ag]` [silver], the “MIC value (Minimum Inhibitory Value)” value in the series with E. coli is 0.05 to 0.1 µg/mL.
